These compounds were tested on ATF4 luciferase reporter (assay: ATF4-Luc assay in HEK293T cells carrying the ATF4 luciferase reporter (in vitro model of VWMD)). Details: Homo sapiens, HEK-293T, 1 μg/mL tunicamycin, 7 hours, luminescence (One Glo).
Type: cell-based, human
In short: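 Reporter cells were stably generated by retroviral transduction and puromycin selection, then seeded at 30,000 cells/well. Next day, cells received 1 μg/mL tunicamycin with 200 nM test compound for 7 h, and luciferase luminescence was read with a one-step reagent. Values reported as EC50.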

| EC50 [nM] | SMILES |
| --- | --- |
| 250 to 500 | O=C(COc1ccc(Cl)c(F)c1)NC12CC(C(=O)NCc3ccc(Cl)c(F)c3)(C1)C2 [Compound 193, 3-[2-(4-chloro-3-fluorophenoxy)acetamido]-N-[(4-chloro-3-fluorophenyl)methyl]bicyclo[1.1.1]pentane-1-carboxamide] |
| > 2000 | CCc1csc(CCNC(=O)C23CC(NC(=O)COc4ccc(Cl)c(F)c4)(C2)C3)n1 [Compound 230, 3-[2-(4-chloro-3-fluorophenoxy)acetamido]-N-[2-(4-ethyl-1,3-thiazol-2-yl)ethyl]bicyclo[1.1.1]pentane-1-carboxamide] |
| > 2000 | Cc1ccc(F)c(CNC(=O)C23CC(NC(=O)COc4ccc(Cl)c(F)c4)(C2)C3)c1 [Compound 174, 3-[2-(4-chloro-3-fluorophenoxy)acetamido]-N-[(2-fluoro-5-methylphenyl)methyl]bicyclo[1.1.1]pentane-1-carboxamide] |
| < 250 | O=C(COc1ccc(Cl)c(Cl)c1)NC12CC(C(=O)NCc3ccc(OC(F)F)cn3)(C1)C2 [Compound 148, 3-[2-(3,4-dichlorophenoxy)acetamido]-N-{[5-(difluoromethoxy)pyridin-2-yl]methyl}bicyclo[1.1.1]pentane-1-carboxamide] |
| > 2000 | O=C(COc1ccc(Cl)c(F)c1)NC12CC(C(=O)NCCc3ccccn3)(C1)C2 [Compound 153, 3-[2-(4-chloro-3-fluorophenoxy)acetamido]-N-[2-(pyridin-2-yl)ethyl]bicyclo[1.1.1]pentane-1-carboxamide] |
| > 2000 | Cc1csc(CNC(=O)C23CC(NC(=O)COc4ccc(Cl)c(F)c4)(C2)C3)n1 [Compound 176, 3-[2-(4-chloro-3-fluorophenoxy)acetamido]-N-[(4-methyl-1,3-thiazol-2-yl)methyl]bicyclo[1.1.1]pentane-1-carboxamide] |
| > 2000 | O=C(COc1ccc(Cl)c(F)c1)NC12CCC(C(=O)NCc3cocn3)(CC1)C(O)C2 (stereo not shown) [Compound 115, 4-[2-(4-chloro-3-fluorophenoxy)acetamido]-2-hydroxy-N-[(1,3-oxazol-4-yl)methyl]bicyclo[2.2.2]octane-1-carboxamide] |
| > 2000 | O=C(COc1ccc(Cl)c(F)c1)NC12CC(C(=O)NCCc3cccnc3)(C1)C2 [Compound 242, 3-[2-(4-chloro-3-fluorophenoxy)acetamido]-N-[2-(pyridin-3-yl)ethyl]bicyclo[1.1.1]pentane-1-carboxamide] |
| > 2000 | COc1ccc(CNC(=O)C23CC(NC(=O)COc4ccc(Cl)c(F)c4)(C2)C3)cc1Cl [Compound 249, 3-[2-(4-chloro-3-fluorophenoxy)acetamido]-N-[(3-chloro-4-methoxyphenyl)methyl]bicyclo[1.1.1]pentane-1-carboxamide] |
| < 250 | O=C(COc1ccc(Cl)c(F)c1)NC12CCC(C(=O)NCc3ccc(C(F)(F)F)cn3)(CC1)[C@@H](O)C2 (single isomer, unassigned) [Compound 114] |
| > 2000 | Cc1ccncc1CNC(=O)C12CC(NC(=O)COc3ccc(Cl)c(F)c3)(C1)C2 [Compound 165, 3-[2-(4-chloro-3-fluorophenoxy)acetamido]-N-[(4-methylpyridin-3-yl)methyl]bicyclo[1.1.1]pentane-1-carboxamide] |
| > 2000 | Cc1noc(CNC(=O)C23CC(NC(=O)COc4ccc(Cl)c(F)c4)(C2)C3)n1 [Compound 159, 3-[2-(4-chloro-3-fluorophenoxy)acetamido]-N-[(3-methyl-1,2,4-oxadiazol-5-yl)methyl]bicyclo[1.1.1]pentane-1-carboxamide] |
| > 2000 | COc1ccc(CNC(=O)C23CC(NC(=O)COc4ccc(Cl)c(F)c4)(C2)C3)cc1 [Compound 195, 3-[2-(4-chloro-3-fluorophenoxy)acetamido]-N-[(4-methoxyphenyl)methyl]bicyclo[1.1.1]pentane-1-carboxamide] |
| > 2000 | CCOc1ccccc1CNC(=O)C12CC(NC(=O)COc3ccc(Cl)c(F)c3)(C1)C2 [Compound 182, 3-[2-(4-chloro-3-fluorophenoxy)acetamido]-N-[(2-ethoxyphenyl)methyl]bicyclo[1.1.1]pentane-1-carboxamide] |
| > 2000 | O=C(COc1ccc(Cl)c(F)c1)NC12CC(C(=O)NCc3ccccc3)(C1)C2 [Compound 162, N-benzyl-3-[2-(4-chloro-3-fluorophenoxy)acetamido]bicyclo[1.1.1]pentane-1-carboxamide] |
| > 2000 | COCc1ccc(CNC(=O)C23CC(NC(=O)COc4ccc(Cl)c(F)c4)(C2)C3)cc1 [Compound 229, 3-[2-(4-chloro-3-fluorophenoxy)acetamido]-N-{[4-(methoxymethyl)phenyl]methyl]bicyclo[1.1.1]pentane-1-carboxamide] |
| < 250 | Cc1ccc(OCCNC(=O)C23CC(NC(=O)COc4ccc(Cl)c(F)c4)(C2)C3)cc1C [Compound 158, 3-[2-(4-chloro-3-fluorophenoxy)acetamido]-N-[2-(3,4-dimethylphenoxy)ethyl]bicyclo[1.1.1]pentane-1-carboxamide] |
| > 2000 | Cc1cccc([C@H](C)NC(=O)C23CC(NC(=O)COc4ccc(Cl)c(F)c4)(C2)C3)c1 [Compound 187, 3-[2-(4-chloro-3-fluorophenoxy)acetamido]-N-[(1S)-1-(3-methylphenyl)ethyl]bicyclo[1.1.1]pentane-1-carboxamide] |
| > 2000 | O=C(COc1ccc(Cl)c(F)c1)NC12CC(C(=O)NCc3cccnn3)(C1)C2 [Compound 205, 3-[2-(4-chloro-3-fluorophenoxy)acetamido]-N-[(pyridazin-3-yl)methyl]bicyclo[1.1.1]pentane-1-carboxamide] |
| 1000 to 2000 | CC(Cc1ccc(F)cc1)NC(=O)C12CC(NC(=O)COc3ccc(Cl)c(F)c3)(C1)C2 (stereo not shown) [Compound 171, 3-[2-(4-chloro-3-fluorophenoxy)acetamido]-N-[1-(4-fluorophenyl)propan-2-yl]bicyclo[1.1.1]pentane-1-carboxamide] |
| < 250 | O=C(COc1ccc(Cl)c(F)c1)NC12CCC(C(=O)NCc3ccc(F)cc3)(CC1)C(O)C2 (stereo not shown) [Compound 130, 4-[2-(4-chloro-3-fluorophenoxy)acetamido]-N-[(4-fluorophenyl)methyl]-2-hydroxybicyclo[2.2.2]octane-1-carboxamide] |
| > 2000 | Cc1cc(CNC(=O)C23CC(NC(=O)COc4ccc(Cl)c(F)c4)(C2)C3)n(C)n1 [Compound 151, 3-[2-(4-chloro-3-fluorophenoxy)acetamido]-N-[(1,3-dimethyl-1H-pyrazol-5-yl)methyl]bicyclo[1.1.1]pentane-1-carboxamide] |
| > 2000 | COc1ccc(CNC(=O)C23CC(NC(=O)COc4ccc(Cl)c(F)c4)(C2)C3)cc1F [Compound 173, 3-[2-(4-chloro-3-fluorophenoxy)acetamido]-N-[(3-fluoro-4-methoxyphenyl)methyl]bicyclo[1.1.1]pentane-1-carboxamide] |
| < 250 | CN(Cc1ccc(C(F)(F)F)cc1)C(=O)C12CCC(NC(=O)COc3ccc(Cl)c(F)c3)(CC1)CC2O (stereo not shown) [Compound 145, 4-[2-(4-chloro-3-fluorophenoxy)acetamido]-2-hydroxy-N-methyl-N-{[4-(trifluoromethyl)phenyl]methyl}bicyclo[2.2.2]octane-1-carboxamide] |
| > 2000 | O=C(COc1ccc(Cl)c(F)c1)NC12CC(C(=O)NCCc3ccc(F)cc3)(C1)C2 [Compound 239, 3-[2-(4-chloro-3-fluorophenoxy)acetamido]-N-[2-(4-fluorophenyl)ethyl]bicyclo[1.1.1]pentane-1-carboxamide] |

From patent US10836725B2, “Modulators of the integrated stress pathway” (Calico Life Sciences LLC, priority 2016, dated 2020)
